System: gut microbiota
Test: 16S rRNA gene sequencing of mouse feces (microbiome profiling)
Format: in vivo, mice
Protocol: Genomic DNA extraction from mouse feces. Total genomic DNA from fecal pellets was extracted using ZymoBIOMICS DNA Miniprep Kit (Zymo Research Corporation) and immediately stored at -80° C. This protocol involves a bead beating step to ensure full recovery of bacterial DNA. DNA concentration and quality were measured using the Nanodrop ND-1000 (ThermoFisher).
16S rRNA gene sequence processing and analysis mouse feces samples. Isolated DNA was analyzed using 16S ribosomal RNA (rRNA) gene sequence to investigate the microbial composition in fecal samples. The V3—V4 region of the 16S rDNA gene was amplified by PCR using primers Bakt_341F (5′-CCTACGGGNGGCWGCAG-3′, SEQ ID NO:5) and Bakt_805R (5′-[…]-3′, SEQ ID NO:6) adapted to incorporate the transposon-based Illumina Nextera adapters (Illumina) and a sample barcode sequence allowing multiplexed paired-end sequencing. PCR mixtures contained 1× Q5 buffer (NEB), 1× Q5 Enhancer (NEB), 200 μM dNTP (VWR International), 0.2 μM of forward and reverse primer (Integrated DNA Technologies), 1 unit of Q5 (NEB) and 1 μl of template DNA in a 50 μl reaction. The PCR cycling conditions consisted of an initial denaturation of 30 sec at 98° C., followed by a first set of 15 cycles (98° C. for 10 sec, 55° C. for 30 sec and 72° C. for 30 sec), then by a second step of 15 cycles (98° C. for 10 sec, 65° C. for 30 sec and 72° C. for 30 sec) and final elongation of 2 min at 72° C. before cooling to 4° C. indefinitely. PCR products were purified using 35 pl of magnetic beads (AxyPrep Mag PCR Clean up kit; Axygen Biosciences) per 50 μl PCR reaction. Amplifications were controlled on a Bioanalyzer 2100 using DNA 7500 chips (Agilent Technologies). Samples were pooled at an equimolar ratio; the pool was repurified as described before and checked for quality on a Bioanalyzer 2100 using a DNA high sensitivity chip. The pool was quantified using picogreen (Life Technologies) and loaded on a MiSeq system (Illumina). High-throughput sequencing was performed at the IBIS (Institut de Biologie Integrative et des Systèmes—Université Laval).
Gene sequence processing and analysis was performed using R v4.0.0. DADA2R package v1.16.0 (Callahan et al., Nat Methods. 2016 July; 13(7):581-3) was used to generate exact amplicon sequence variants (ASV) of each sample from raw amplicon sequences. Sequences were corrected for Illumina amplicon sequence errors, de-replicated, chimera removed, and merged of paired-end reads with 260-bases for forward reads and 190-bases for reverse reads. The taxonomy assignment was performed against the SILVA reference database v138 (Quast et al., Nucleic Acids Res. 2013 January; 41(Database issue):D590-6). Archea and Eukaryota residual sequences were removed. Downstream analyses were performed at the genus-level through phyloseq R package v1.32.0 (McMurdie et al., PLoS One. 2013 Apr 22;8(4):e61217). The alpha-diversity was estimated with the Shannon diversity index and the Inverse Simpson index. These indexes were compared between groups using Mann-Whitney tests.
Statistical analysis. Statistical analysis was performed using R v4.0.0. The Mann-Whitney U test was used to determine significant differences among the different groups using alpha-diversity which show the diversity in each individual sample measures. DESeq2 (Love et al., Genome Biol. 2014;15(12):550) was used to perform differential abundances analysis at the genus-level. […]

Structure (SMILES): O=C1OC[C@H]2OC(=O)c3cc(O)c(O)c(O)c3-c3c(O)c(O)c(O)c4c3C(=O)O[C@H]([C@H]3OC(=O)c5c-4c(O)c(O)c(O)c5[C@@H]3O)[C@@H]2OC(=O)c2cc(O)c(O)c(O)c2-c2c1cc(O)c(O)c2O [castalagin, Castalagin]
- beta-diversity (Bray-Curtis) (MCA-205 model, SPF mice, castalagin or water gavage): significant clusters formation observed with beta-diversity
- differential abundance, taxa enriched (MCA-205 model, SPF mice, castalagin/IsoPD-1 vs water/IsoPD-1): enrichment of Akkermensia, Ruminococcaceae UBA1819, Ruminococcus, Staphylococcus, Escherichia/shigella, Blautia and Alistipes
- alpha-diversity (observed genus) (MCA-205 model, SPF mice, castalagin/isoPD-1, post-castalagin vs baseline): increased alpha-diversity
- relative abundance, genera increased (NR FMT experiment, castalagin groups relative to water groups): increase of the relative abundance after 16s sequencing analysis of Ruminococcus, Alistepes, Christensenellaceae R7 group, Paraprevotella
- relative abundance of Lachnoclostridium (NR FMT experiment, castalagin vs water groups): no difference of Lachnoclostridium was observed

Reference: patent US20230075822A1, “USE OF CASTALAGIN OR ANALOGS THEREOF FOR ANTI-CANCER EFFICACY AND TO INCREASE THE RESPONSE TO IMMUNE CHECKPOINT INHIBITORS” (THE ROYAL INSTITUTION FOR THE ADVANCEMENT OF …, priority 2020, published 2023)
